Measured values reported in patent US20250313535A1, “ALPHA 4 BETA 7 INTEGRIN MODULATORS AND USES THEREOF” (DICE MOLECULES SV, INC., priority 2022, published 2025).
Where two headings read alike, the source gives them in different places.

Experiments:
α4β1 integrin = α4β1 integrin (Homo sapiens (Human), UniProt P05556+P13612); test: Integrin Adhesion Assay: Protocol 5 (VCAM-coated plate, RPMI-8866 cells with stable LOF mutation of the ITGB7 gene); format: cell-based
Outline: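 RPMI-8866 B cells with CRISPR/Cas9 ITGB7 knockout (clonal, verified by flow cytometry) adhered to VCAM-coated wells for 1 h at 37° C in HEPES/NaCl buffer with 1 mM MnCl2, 0.1 mM CaCl2, 1% BSA, 1% DMSO. Bound cells quantified by CellTiter-Glo luminescence after washing; % inhibition versus DMSO and control, 4-parameter fit.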

α4β7 integrin = α4β7 integrin (Homo sapiens (Human), UniProt P13612+P26010); test: Integrin Adhesion Assay: Protocol 4 (MAdCAM-coated plate, RPMI-8866 cells with stable LOF mutation of the ITGB1 gene); format: cell-based
Chain of α4β7 integrin (P13612 34-1032): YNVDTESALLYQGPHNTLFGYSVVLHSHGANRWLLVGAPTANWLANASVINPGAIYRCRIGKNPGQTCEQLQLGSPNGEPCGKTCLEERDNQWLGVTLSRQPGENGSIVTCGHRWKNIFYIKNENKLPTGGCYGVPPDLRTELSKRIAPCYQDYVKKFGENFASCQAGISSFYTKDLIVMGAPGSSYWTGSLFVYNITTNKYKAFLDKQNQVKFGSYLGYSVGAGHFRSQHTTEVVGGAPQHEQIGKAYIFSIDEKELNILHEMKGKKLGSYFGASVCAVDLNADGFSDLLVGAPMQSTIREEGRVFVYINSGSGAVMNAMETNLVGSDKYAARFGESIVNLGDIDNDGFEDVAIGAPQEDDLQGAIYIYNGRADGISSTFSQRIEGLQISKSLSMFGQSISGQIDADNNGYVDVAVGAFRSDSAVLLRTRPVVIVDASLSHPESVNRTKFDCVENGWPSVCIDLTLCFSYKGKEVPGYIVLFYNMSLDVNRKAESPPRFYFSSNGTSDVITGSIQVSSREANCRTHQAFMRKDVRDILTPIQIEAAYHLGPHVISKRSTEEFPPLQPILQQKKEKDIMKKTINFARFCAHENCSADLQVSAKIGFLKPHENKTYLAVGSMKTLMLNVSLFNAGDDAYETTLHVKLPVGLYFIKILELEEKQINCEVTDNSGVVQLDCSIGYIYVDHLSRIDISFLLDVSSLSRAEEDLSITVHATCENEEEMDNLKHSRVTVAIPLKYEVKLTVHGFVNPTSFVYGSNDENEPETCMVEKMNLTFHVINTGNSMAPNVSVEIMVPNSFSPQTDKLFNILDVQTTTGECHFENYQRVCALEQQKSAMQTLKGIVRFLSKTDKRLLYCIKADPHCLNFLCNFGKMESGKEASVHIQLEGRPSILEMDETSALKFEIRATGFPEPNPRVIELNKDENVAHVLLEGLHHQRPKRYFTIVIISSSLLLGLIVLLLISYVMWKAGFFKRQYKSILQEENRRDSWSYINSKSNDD
Chain of α4β7 integrin (P26010 20-798): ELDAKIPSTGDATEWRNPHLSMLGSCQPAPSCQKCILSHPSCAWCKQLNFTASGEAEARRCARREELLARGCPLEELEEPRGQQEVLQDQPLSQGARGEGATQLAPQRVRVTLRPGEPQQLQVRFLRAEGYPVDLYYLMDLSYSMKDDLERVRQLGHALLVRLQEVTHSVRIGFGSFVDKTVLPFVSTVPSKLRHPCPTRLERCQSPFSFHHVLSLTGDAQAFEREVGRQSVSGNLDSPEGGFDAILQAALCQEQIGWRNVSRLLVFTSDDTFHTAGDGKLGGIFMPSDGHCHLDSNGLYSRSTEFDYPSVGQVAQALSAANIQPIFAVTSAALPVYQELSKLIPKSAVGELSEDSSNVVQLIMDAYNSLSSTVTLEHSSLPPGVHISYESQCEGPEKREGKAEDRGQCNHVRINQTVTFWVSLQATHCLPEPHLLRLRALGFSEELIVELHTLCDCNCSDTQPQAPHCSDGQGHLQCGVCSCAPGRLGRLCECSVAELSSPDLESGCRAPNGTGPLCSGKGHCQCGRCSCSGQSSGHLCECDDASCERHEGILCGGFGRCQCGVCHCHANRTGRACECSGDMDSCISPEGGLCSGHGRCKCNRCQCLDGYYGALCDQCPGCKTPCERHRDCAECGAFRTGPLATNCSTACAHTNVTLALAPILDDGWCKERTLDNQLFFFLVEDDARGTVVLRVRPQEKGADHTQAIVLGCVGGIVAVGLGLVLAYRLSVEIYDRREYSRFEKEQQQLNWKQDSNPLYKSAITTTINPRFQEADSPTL
Outline: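 RPMI-8866 cells with CRISPR/Cas9 knockout of ITGB1 (2×10^6/mL) were added to MAdCAM-coated wells with compound (1% DMSO) in HEPES/NaCl buffer with 1 mM MnCl2, 0.1 mM CaCl2 and 1% BSA, then incubated 1 h at 37 °C. After four washes, adherent cells were quantified by CellTiter-Glo luminescence. Percent inhibition versus DMSO and control compound was fitted to 4-parameter curves.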

[1] = Protocol 5, RPMI-8866 cells with LOF mutation of ITGB7, VCAM, read-out: Mean IC50 α4β1 KO
[2] = Protocol 4, RPMI-8866 cells with LOF mutation of ITGB1, MAdCAM, read-out: Mean IC50 α4β7 KO
[3] = RPMI-8866 cells with stable LOF mutation of the ITGB7 gene, read-out: Mean IC50 α4β1 KO^b
[4] = RPMI-8866 cells with stable LOF mutation of the ITGB1 gene, read-out: Mean IC50 α4β7 KO^a

Chain of α4β1 integrin (P13612 34-1032): as the sequence (P13612 34-1032) above
Chain of α4β1 integrin (P05556 21-798): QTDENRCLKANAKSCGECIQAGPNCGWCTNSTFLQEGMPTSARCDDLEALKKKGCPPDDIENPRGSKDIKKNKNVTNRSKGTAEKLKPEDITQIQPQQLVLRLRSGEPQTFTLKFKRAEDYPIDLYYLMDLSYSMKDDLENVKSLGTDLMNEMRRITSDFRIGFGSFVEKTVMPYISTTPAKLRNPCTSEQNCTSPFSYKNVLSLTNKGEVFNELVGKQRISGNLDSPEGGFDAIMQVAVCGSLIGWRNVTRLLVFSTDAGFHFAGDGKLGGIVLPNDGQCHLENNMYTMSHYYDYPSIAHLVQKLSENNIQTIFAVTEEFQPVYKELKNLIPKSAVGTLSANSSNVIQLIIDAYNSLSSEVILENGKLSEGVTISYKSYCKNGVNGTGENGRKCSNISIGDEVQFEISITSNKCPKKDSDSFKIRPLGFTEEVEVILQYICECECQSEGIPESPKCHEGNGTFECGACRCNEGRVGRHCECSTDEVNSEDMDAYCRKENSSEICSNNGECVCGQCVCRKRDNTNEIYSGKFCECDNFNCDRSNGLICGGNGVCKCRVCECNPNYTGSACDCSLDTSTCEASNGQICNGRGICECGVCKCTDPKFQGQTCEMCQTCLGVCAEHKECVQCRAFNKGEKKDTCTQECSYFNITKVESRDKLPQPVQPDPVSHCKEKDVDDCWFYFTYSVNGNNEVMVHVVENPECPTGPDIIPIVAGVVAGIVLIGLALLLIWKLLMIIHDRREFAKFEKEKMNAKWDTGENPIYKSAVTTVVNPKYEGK

| SMILES | IC50 (α4β1 integrin; [1]) | IC50 (α4β7 integrin; [2]) | IC50 (α4β1 integrin; [3]) | IC50 (α4β7 integrin; [4]) |
| --- | --- | --- | --- | --- |
| CC1(C)CCCN(Cc2cnc(-c3cccc4c(C[C@H](NC(=O)C5(C(F)(F)F)CCN(CC(F)(F)F)CC5)C(=O)O)cccc34)c3ccccc23)C1 [Compound 873] | > 1000 nM | 10 to 100 nM | – | – |
| Cn1c(=O)c(-c2cccc3c(C[C@H](NC(=O)c4c(F)cccc4F)C(=O)O)cccc23)c(C(F)(F)F)c2cc(CN)ccc21 [Compound 1051] | 100 to 1000 nM | < 10 nM | – | – |
| O=C(O)[C@H](Cc1cccc2c(-c3nccc4ccc(CCN5CCCCC5)cc34)cccc12)NC(=O)C1(C(F)(F)F)CCN(CC(F)(F)F)CC1 [Compound 718] | > 1000 nM | < 10 nM | – | – |
| COc1cccc(CN2CCCCC2)c1-c1cccc2c(C[C@H](NC(=O)c3c(C)cc(NCC(F)(F)F)cc3F)C(=O)O)cccc12 [Compound 545] | – | – | 100 to 1000 nM | < 10 nM |
| COc1ccc2c(c1-c1cccc3c(C[C@H](NC(=O)C4(C(F)(F)F)CCN(CC(F)(F)F)CC4)C(=O)O)cccc13)CN(CC(F)F)CC2 [Compound 753] | > 1000 nM | 10 to 100 nM | – | – |
| COc1ccc(CN2CCC(C)(C)CC2)c(OC)c1-c1cccc2c(C[C@H](NC(=O)c3c(C)cccc3F)C(=O)O)cccc12 [Compound 626] | – | – | 100 to 1000 nM | < 10 nM |
| COc1ccc2c(CN3CCCCC3)ccnc2c1-c1cccc2c(C[C@H](NC(=O)C3(C(F)(F)F)CCN(CC(F)(F)F)CC3)C(=O)O)cccc12 [Compound 722] | 10 to 100 nM | < 10 nM | – | – |
| COc1ccc(CN(C)C)nc1-c1cccc2c(C[C@H](NC(=O)c3c(C)cccc3F)C(=O)O)cccc12 [Compound 599] | – | – | 100 to 1000 nM | < 10 nM |
| Cn1c(=O)c(-c2cccc3c(C[C@H](NC(=O)C4(C(F)(F)F)CCN([C@@H]5CCC(F)(F)C5)CC4)C(=O)O)cccc23)c(C(F)(F)F)c2ccccc21 [Compound 494] | – | – | 100 to 1000 nM | 10 to 100 nM |
| CC1(C(=O)N[C@@H](Cc2cccc3c(-c4ncc(CN5CCCCC5)c5ccccc45)cccc23)C(=O)O)CC2CCC(C1)N2CC(F)(F)F (stereo partly shown) [Compound 679] | – | – | > 1000 nM | 10 to 100 nM |
| O=C(O)[C@H](Cc1cccc2c(-c3ccc(CN4CCC(F)CC4)c4ccncc34)cccc12)NC(=O)C1(C(F)(F)F)CCN(CC(F)(F)F)CC1 [Compound 987] | > 1000 nM | < 10 nM | – | – |
| O=C(O)[C@H](Cc1cccc2c(-c3ncc(CN4CCC(F)(F)CC4)cc3C3CC3)cccc12)NC(=O)C1(C(F)(F)F)CCN(CC(F)(F)F)CC1 [Compound 947] | 100 to 1000 nM | < 10 nM | – | – |
| COc1ccc(CN2CCC(c3ccccc3)CC2)c(OC)c1-c1cccc2c(C[C@H](NC(=O)c3c(C)cccc3F)C(=O)O)cccc12 [Compound 570] | – | – | 100 to 1000 nM | < 10 nM |
| O=C(O)[C@H](Cc1cccc2c(-c3ncc(CN4CC5CC(C5)C4)c4ccccc34)cccc12)NC(=O)C1(C(F)(F)F)CCN(CC(F)F)CC1 [Compound 907] | > 1000 nM | < 10 nM | – | – |
| O=C(O)[C@H](Cc1cccc2c(-c3ncc(CCCN4CCCCC4)c4ccccc34)cccc12)NC(=O)C1(C(F)(F)F)CCN(CC(F)(F)F)CC1 [Compound 730] | > 1000 nM | < 10 nM | – | – |
| O=C(O)[C@H](Cc1cccc2c(-c3nccc4c(CN5CCCC5)cccc34)cccc12)NC(=O)C1(C(F)(F)F)CCN(CC(F)(F)F)CC1 [Compound 553] | – | – | 100 to 1000 nM | < 10 nM |
| COc1ccc(CN2CCCC(F)C2)c(OC)c1-c1cccc2c(C[C@H](NC(=O)C3(C(F)(F)F)CCN(CC(F)(F)F)CC3)C(=O)O)cccc12 (stereo partly shown) [Compound 788] | > 1000 nM | < 10 nM | – | – |
| CN1CCCC1c1cc(-c2cccc3c(C[C@H](NC(=O)C4(C(F)(F)F)CCN(C5COC5)CC4)C(=O)O)cccc23)c2cnccc2c1 (stereo partly shown) [Compound 644] | – | – | 100 to 1000 nM | < 10 nM |
| CCCS(=O)(=O)Nc1ccc(F)c(C(=O)N[C@@H](Cc2cccc3c(-c4c(C(F)(F)F)c5ccccc5n(C)c4=O)cccc23)C(=O)O)c1F [Compound 496] | – | – | > 1000 nM | 10 to 100 nM |
| COc1c2c(cc(C)c1-c1cccc3c(C[C@H](NC(=O)C4(C(F)(F)F)CCN(CC(F)(F)F)CC4)C(=O)O)cccc13)CCN(C)C2 [Compound 735] | > 1000 nM | < 10 nM | – | – |
| O=C(O)[C@H](Cc1cccc2c(-c3ncc(CCN4CCC[C@H](F)C4)c4ccccc34)cccc12)NC(=O)C1(C(F)(F)F)CCN(CC(F)(F)F)CC1 [Compound 978] | > 1000 nM | < 10 nM | – | – |
| COc1cncc(OC)c1-c1cccc2c(C[C@H](NC(=O)C3(C(F)(F)F)CCN(CC(F)(F)F)CC3)C(=O)O)cccc12 [Compound 734] | 100 to 1000 nM | < 10 nM | – | – |
| COc1ccc(CN2CCCC3(CCN(Cc4ccccc4)CC3)C2)c(OC)c1-c1cccc2c(C[C@H](NC(=O)C3(C(F)(F)F)CCN(CC(F)(F)F)CC3)C(=O)O)cccc12 [Compound 809] | 100 to 1000 nM | < 10 nM | – | – |
| CC1(C)CCCN(Cc2cnc(-c3cccc4c(C[C@H](NC(=O)C5(C(F)(F)F)CCN(CC(F)F)CC5)C(=O)O)cccc34)c3ccccc23)C1 [Compound 910] | > 1000 nM | < 10 nM | – | – |
| O=C(O)[C@H](Cc1cccc2c(-c3ncc(CN4CCC5(CC4)CC5)c4ccccc34)cccc12)NC(=O)C1(C(F)(F)F)CCN(CC(F)F)CC1 [Compound 912] | > 1000 nM | < 10 nM | – | – |
| COc1ccc(CN(C)C)c(OC)c1-c1cccc2c(C[C@H](NC(=O)c3c(C)cc(NCC(F)(F)F)cc3F)C(=O)O)cccc12 [Compound 607] | – | – | 100 to 1000 nM | < 10 nM |
| O=C(O)[C@H](Cc1cccc2c(-c3nccc4ccccc34)cccc12)NC(=O)C1(C(F)(F)F)CCN(C2COC2)CC1 [Compound 497] | – | – | > 1000 nM | < 10 nM |

The next lines start with the values.

| IC50 (α4β1 integrin; [1]) | IC50 (α4β7 integrin; [2]) | IC50 (α4β1 integrin; [3]) | IC50 (α4β7 integrin; [4]) | SMILES |
| --- | --- | --- | --- | --- |
| 100 to 1000 nM | < 10 nM | – | – | COc1ccc(CN2CCC(F)(F)CC2)cc1-c1cccc2c(C[C@H](NC(=O)C3(C(F)(F)F)CCN(CC(F)F)CC3)C(=O)O)cccc12 [Compound 927] |
| – | – | 100 to 1000 nM | < 10 nM | COc1ccc(CN2CCN(C3CCC3)CC2)c(OC)c1-c1cccc2c(C[C@H](NC(=O)c3c(C)cccc3F)C(=O)O)cccc12 [Compound 656] |
| 100 to 1000 nM | < 10 nM | – | – | COc1ccc(C2(N(C)C)CC2)c(OC)c1-c1cccc2c(C[C@H](NC(=O)c3c(C)cccc3F)C(=O)O)cccc12 [Compound 1045] |
| – | – | 100 to 1000 nM | < 10 nM | Cn1c(=O)c(-c2cccc3c(C[C@H](NC(=O)C4(C(F)(F)F)CCN([C@H]5CCOC5)CC4)C(=O)O)cccc23)c(C(F)(F)F)c2ccccc21 [Compound 457] |
| > 1000 nM | 10 to 100 nM | – | – | COc1cc(CN2CCC(F)(F)CC2)cc(C(F)(F)F)c1-c1cccc2c(C[C@H](NC(=O)C3(C(F)(F)F)CCN(CC(F)(F)F)CC3)C(=O)O)cccc12 [Compound 847] |
| – | – | 100 to 1000 nM | < 10 nM | COc1ccc(CN2CCOCC2)c(OC)c1-c1cccc2c(C[C@H](NC(=O)c3c(C)cccc3F)C(=O)O)cccc12 [Compound 650] |
| – | – | 100 to 1000 nM | < 10 nM | O=C(O)[C@H](Cc1cccc2c(-c3nccc4ccc(CCCN5CCCCC5)cc34)cccc12)NC(=O)C1(C(F)(F)F)CCN(C2COC2)CC1 [Compound 547] |
| 100 to 1000 nM | < 10 nM | – | – | Cc1c(CCN2CCCCC2)ccnc1-c1cccc2c(C[C@H](NC(=O)C3(C(F)(F)F)CCN(CC(F)(F)F)CC3)C(=O)O)cccc12 [Compound 717] |
| > 1000 nM | 100 to 1000 nM | – | – | Cn1c(=O)c(-c2cccc3c(C[C@H](NC(=O)C4(C(F)(F)F)CCCN(CC5COC5)C4)C(=O)O)cccc23)c(C(F)(F)F)c2ccccc21 (stereo partly shown) [Compound 1049] |
| – | – | > 1000 nM | < 10 nM | COc1cccc(CN2CCCCC2)c1-c1cccc2c(C[C@H](NC(=O)C3(C(F)(F)F)CCN(CC(F)(F)F)CC3)C(=O)O)cccc12 [Compound 566] |
| > 1000 nM | 10 to 100 nM | – | – | Cn1c(=O)c(-c2cccc3c(C[C@H](NC(=O)C4(C(F)(F)F)CCN(CC(F)(F)F)CC4)C(=O)O)cccc23)c(C(F)(F)F)c2ccc(CN3CCC(F)(F)CC3)cc21 [Compound 846] |
| > 1000 nM | 10 to 100 nM | – | – | COc1cc(C(F)(F)F)c(CN2CCCCC2)cc1-c1cccc2c(C[C@H](NC(=O)C3(C(F)(F)F)CCN(CC(F)(F)F)CC3)C(=O)O)cccc12 [Compound 832] |
| – | – | 100 to 1000 nM | 10 to 100 nM | COc1ccc(CN2CCC(F)(F)CC2)c(OC)c1-c1cccc2c(C[C@H](NC(=O)c3c(F)cncc3Cl)C(=O)O)cccc12 [Compound 614] |
| > 1000 nM | 10 to 100 nM | – | – | O=C(O)[C@H](Cc1cccc2c(-c3ncc(CN4CCCC(F)(F)CC4)c4ccccc34)cccc12)NC(=O)C1(C(F)(F)F)CCN(CC(F)(F)F)CC1 [Compound 869] |
| 100 to 1000 nM | < 10 nM | – | – | O=C(O)[C@H](Cc1cccc2c(-c3ncc(CN4CCOCC45CC5)c4ccccc34)cccc12)NC(=O)C1(C(F)(F)F)CCN(CC(F)F)CC1 [Compound 914] |
| – | – | > 1000 nM | > 1000 nM | Cn1c(=O)c(-c2cccc3c(C[C@H](NC(=O)C4(C(F)(F)F)CCN([C@H](C5CC5)C(F)(F)F)CC4)C(=O)O)cccc23)c(C(F)(F)F)c2ccccc21 [Compound 485] |
| 100 to 1000 nM | < 10 nM | – | – | CC(C)Oc1cc(CN2CCCCC2)cnc1-c1cccc2c(C[C@H](NC(=O)C3(C(F)(F)F)CCN(CC(F)(F)F)CC3)C(=O)O)cccc12 [Compound 894] |
